# Legend:
# [1] = system: Staphylococcus aureus ACTT 6538; assay: in vitro bacteria attachment assay on coated surgical mesh discs in SST medium; assay type: cell-based; details: serum containing media
# Protocol: (§1) Taurolidine was dissolved at 4% wt./vol. in a 70% acetone 30% water vol./vol. mixture. Protamine sulfate was dissolved at 10% wt./vol. in water under warming. 50 μl of the taurolidine (TU) solution and 20 μl of the protamine (PS) solution were applied to each mesh disk using a pipette and allowed to dry at 50° C. until the majority of the liquid was gone and then stored under vacuum. First the taurolidine solution was applied, and then immediately thereafter the protamine sulfate solution was applied. The in vitro bacteria attachment assay was developed for its utility of indicating biofilm prevention potential of prototype mesh. Since bacterial attachment to a surface is the first step of biofilm formation, a surface treatment that inhibits bacterial attachment would reduce the chance of subsequent biofilm formation. The assay was conducted in SST (Serum Saline TSB) medium to mimic in vivo and clinical conditions. The formulation of SST is Tryptic Soy Broth (TSB):serum:saline in the ratio of 1:2:7. Each test article was incubated in SST inoculated with Staphylococcus aureus ACTT 6538 or Escherichia coli ATCC 25922 at about 6 Log CFU/ml. […] Viable bacteria populations were measured by plate count on TSA (Tryptic Soy agar) medium contain neutralizing agents. […]
# [2] = system: Escherichia coli ATCC 25922; assay: as above; assay type: cell-based; details: serum containing media
# Protocol: as §1
# [3] = cited from earlier work
smiles,measurement,setting,value
"O=S1(=O)CCN(CN2CCS(=O)(=O)NC2)CN1 [TU, bis(1,1-dioxoperhydro-1,2,4-thiadiazinyl-4)-methane]",inhibition of attachment by S. aureus to treated mesh surface,[1],less inhibition than the combination
same,inhibition of attachment by E. coli to treated mesh surface,[2],less inhibition than the combination
same,cumulative dose shown to be safe and well tolerated,[3]; cumulative doses,exceeding 300 g
same,systemic dose shown to be safe and well tolerated,[3]; systemic doses,exceeding 40 g/day
